Results: PubChem BioAssay (NCI)
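GI50 = concentration required for 50% inhibition of growth. TGI marks complete inhibition of growth.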

Key:
Assay in all cases: DTP human tumour cell line panel, 384-well format
786-0 renal = tested on: 786-0 renal
A498 renal = tested on: A498 renal
A549 NSCLC = tested on: A549 NSCLC
ACHN renal = tested on: ACHN renal
BT-549 breast = tested on: BT-549 breast
CAKI-1 renal = tested on: CAKI-1 renal
COLO 205 colon = tested on: COLO 205 colon
DU-145 prostate = tested on: DU-145 prostate
HCC-2998 colon = tested on: HCC-2998 colon
HCT-116 colon = tested on: HCT-116 colon
HCT-15 colon = tested on: HCT-15 colon
HOP-62 NSCLC = tested on: HOP-62 NSCLC
HOP-92 NSCLC = tested on: HOP-92 NSCLC
HT29 colon = tested on: HT29 colon
IGROV1 ovarian = tested on: IGROV1 ovarian
K-562 leukemia = tested on: K-562 leukemia
KM12 colon = tested on: KM12 colon
LOX IMVI melanoma = tested on: LOX IMVI melanoma
M14 melanoma = tested on: M14 melanoma
MALME-3M melanoma = tested on: MALME-3M melanoma
MCF7 breast = tested on: MCF7 breast
MDA-MB-231 breast = tested on: MDA-MB-231 breast
MDA-MB-435 melanoma = tested on: MDA-MB-435 melanoma
NCI-H226 lung = tested on: NCI-H226 lung
NCI-H23 lung = tested on: NCI-H23 lung
NCI-H460 NSCLC = tested on: NCI-H460 NSCLC
NCI/ADR-RES ovarian = tested on: NCI/ADR-RES ovarian
OVCAR-3 ovarian = tested on: OVCAR-3 ovarian
OVCAR-4 ovarian = tested on: OVCAR-4 ovarian
OVCAR-5 ovarian = tested on: OVCAR-5 ovarian
OVCAR-8 ovarian = tested on: OVCAR-8 ovarian
PC-3 prostate = tested on: PC-3 prostate
RPMI-8226 leukemia = tested on: RPMI-8226 leukemia
RXF 393 renal = tested on: RXF 393 renal
SF-268 CNS = tested on: SF-268 CNS
SF-295 CNS = tested on: SF-295 CNS
SF-539 CNS = tested on: SF-539 CNS
SK-MEL-2 melanoma = tested on: SK-MEL-2 melanoma
SK-MEL-28 melanoma = tested on: SK-MEL-28 melanoma
SK-MEL-5 melanoma = tested on: SK-MEL-5 melanoma
SK-OV-3 ovarian = tested on: SK-OV-3 ovarian
SN12C renal = tested on: SN12C renal
SNB-19 CNS = tested on: SNB-19 CNS
SW-620 colon = tested on: SW-620 colon
T-47D breast = tested on: T-47D breast
TK-10 renal = tested on: TK-10 renal
U251 glioblastoma = tested on: U251 glioblastoma
UACC-257 melanoma = tested on: UACC-257 melanoma
UACC-62 melanoma = tested on: UACC-62 melanoma
UO-31 renal = tested on: UO-31 renal

CC[C@@H]1c2c(C#N)ncn2-c2cnc(Nc3ccc(C(=O)NC4CCN(C5CCN(CC6CC6)CC5)CC4)cc3OC)nc2N1C1CCCC1
GI50 ([…]-0 renal): 0.116 µM | TGI (786-0 renal): 0.241 µM | GI50 (A498 renal): 0.123 µM | TGI (A498 renal): 0.254 µM | GI50 (A549 NSCLC): 0.0417 µM | TGI (A549 NSCLC): 0.171 µM | GI50 (ACHN renal): 0.204 µM | TGI (ACHN renal): 0.767 µM | GI50 (BT-549 breast): 0.0542 µM | TGI (BT-549 breast): 0.228 µM | GI50 (CAKI-1 renal): 0.137 µM | TGI (CAKI-1 renal): 0.28 µM | GI50 (COLO 205 colon): 0.0198 µM | TGI (COLO 205 colon): 0.11 µM | GI50 (DU-145 prostate): 0.0239 µM | TGI (DU-145 prostate): 0.0538 µM | GI50 (HCC-2998 colon): 0.0209 µM | TGI (HCC-2998 colon): 0.0487 µM | GI50 (HCT-116 colon): 0.0214 µM | TGI (HCT-116 colon): 0.107 µM | GI50 (HCT-15 colon): 0.137 µM | TGI (HCT-15 colon): 0.269 µM | GI50 (HOP-62 NSCLC): 0.0286 µM | TGI (HOP-62 NSCLC): 0.0766 µM | GI50 (HOP-92 NSCLC): 0.0433 µM | TGI (HOP-92 NSCLC): 0.404 µM | GI50 (HT29 colon): 0.022 µM | TGI (HT29 colon): 0.0488 µM | GI50 (IGROV1 ovarian): 0.0449 µM | TGI (IGROV1 ovarian): 1.66 µM | GI50 (K-562 leukemia): 0.0211 µM | TGI (K-562 leukemia): 0.0438 µM | GI50 (KM12 colon): 0.0239 µM | TGI (KM12 colon): 0.0749 µM | GI50 (LOX IMVI melanoma): 0.0283 µM | TGI (LOX IMVI melanoma): 0.0596 µM | GI50 (M14 melanoma): 0.03 µM | TGI (M14 melanoma): 0.0819 µM | GI50 (MALME-3M melanoma): 0.134 µM | TGI (MALME-3M melanoma): 0.263 µM | GI50 (MCF7 breast): 0.0345 µM | TGI (MCF7 breast): 0.169 µM | GI50 (MDA-MB-231 breast): 0.0445 µM | TGI (MDA-MB-231 breast): 0.158 µM | GI50 (MDA-MB-435 melanoma): 0.0157 µM | TGI (MDA-MB-435 melanoma): 0.0386 µM | GI50 (NCI-H226 lung): 0.175 µM | TGI (NCI-H226 lung): 1.31 µM | GI50 (NCI-H23 lung): 0.0275 µM | TGI (NCI-H23 lung): 0.0614 µM | GI50 (NCI-H460 NSCLC): 0.0164 µM | TGI (NCI-H460 NSCLC): 0.0351 µM | GI50 (NCI/ADR-RES ovarian): 1.11 µM | TGI (NCI/ADR-RES ovarian): 2.31 µM | GI50 (OVCAR-3 ovarian): 0.0157 µM | TGI (OVCAR-3 ovarian): 0.0484 µM | GI50 (OVCAR-4 ovarian): 0.125 µM | TGI (OVCAR-4 ovarian): 0.273 µM | GI50 (OVCAR-5 ovarian): 0.053 µM | TGI (OVCAR-5 ovarian): 0.204 µM | GI50 (OVCAR-8 ovarian): 0.0217 µM | TGI (OVCAR-8 ovarian): 0.0418 µM | GI50 (PC-3 prostate): 0.0538 µM | TGI (PC-3 prostate): 0.302 µM | GI50 (RPMI-8226 leukemia): 0.0139 µM | TGI (RPMI-8226 leukemia): 0.0315 µM | GI50 (RXF 393 renal): 0.0197 µM | TGI (RXF 393 renal): 0.0433 µM | GI50 (SF-268 CNS): 0.0251 µM | TGI (SF-268 CNS): 0.197 µM | GI50 (SF-295 CNS): 0.0757 µM | TGI (SF-295 CNS): 1.48 µM | GI50 (SF-539 CNS): 0.0365 µM | TGI (SF-539 CNS): 0.106 µM | GI50 (SK-MEL-2 melanoma): 0.0138 µM | TGI (SK-MEL-2 melanoma): 0.0339 µM | GI50 (SK-MEL-28 melanoma): 0.0601 µM | TGI (SK-MEL-28 melanoma): 0.182 µM | GI50 (SK-MEL-5 melanoma): 0.0172 µM | TGI (SK-MEL-5 melanoma): 0.0656 µM | GI50 (SK-OV-3 ovarian): 0.0261 µM | TGI (SK-OV-3 ovarian): 0.0875 µM | GI50 (SN12C renal): 0.103 µM | TGI (SN12C renal): 0.356 µM | GI50 (SNB-19 CNS): 0.0387 µM | TGI (SNB-19 CNS): 0.269 µM | TGI (SW-620 colon): 0.0448 µM | GI50 (T-47D breast): 0.117 µM | TGI (T-47D breast): 0.241 µM | GI50 (TK-10 renal): 0.317 µM | TGI (TK-10 renal): 1.74 µM | GI50 (U251 glioblastoma): 0.0233 µM | TGI (U251 glioblastoma): 0.152 µM | GI50 (UACC-257 melanoma): 0.0785 µM | TGI (UACC-257 melanoma): 0.201 µM | GI50 (UACC-62 melanoma): 0.0328 µM | TGI (UACC-62 melanoma): 0.0955 µM | GI50 (UO-31 renal): 0.181 µM | TGI (UO-31 renal): 0.322 µM
